Measurements reported in patent US20260256779A1, “PYRIDAZIN-3-CARBOXAMIDE COMPOUND AS TYK2 INHIBITOR” (Guangzhou Fermion Technology Co., Ltd., priority 2022, published 2026).
pIC50: −log10 of the molar value.

Key:
[1] = target: T1, TYK2 JH2 pseudokinase (Homo sapiens, UniProt P29597); experiment: TYK2 JH2 in vitro enzyme binding assay (TR-FRET); details: 60 min at room temperature
T1 construct: 5 μL of 3×TYK2 JH2 kinase (Bioduro); purchased Bioduro
Procedure: Purpose: The purpose of this test example was to use a fluorescence resonance energy transfer (TR-FRET) method to test the binding effect of the compound on a TYK2 JH2 pseudokinase, and then evaluate the affinity of the compound for TYK2 JH2.
DMSO-dissolved compounds were used to prepare 10 mM stock solutions, then 200× compounds having different gradient concentrations were prepared in a compound dilution plate, and transferred to an Echo plate. 75 nL of the compounds were transferred from the Echo plate to a 384-well assay plate using an Echo instrument, and 5 μL of 3×TYK2 JH2 kinase (Bioduro), 5 μL of 3× Tb antibody (Cisbio) and 5 μL of 3×TRACER (Bioduro) were added to the 384-well assay plate, centrifuged for 30 seconds, and incubated at room temperature for 60 minutes. A 495 nm/520 nm fluorescence signal ratio was read by an Envision microplate reader (PerkinElmer), and data was analyzed using XL-Fit software to calculate the IC50 of the compound.

[2] = system: IL-2-induced CD3+ pSTAT5 (JAK1/3) in hPBMC; experiment: IL-2-induced STAT5 phosphorylation (JAK1/3) in CD3+ cell subpopulations in human PBMC, flow cytometry; format: cell-based; details: CD3+ cells, IL-2 stimulation
Procedure: Purpose: The purpose of this test example was to test the inhibitory effect of the compound on IL-2-induced STAT5 phosphorylation using protein phosphorylation flow cytometric analysis technology.
Human PBMC cells were pre-incubated with the compounds, STAT5 was induced to phosphorylate under appropriate stimulation conditions, and corresponding cell subpopulations and targets were stained. Flow cytometry was used to read cell data and analyze the strength of phosphorylated antibody signals under different compound concentrations. PBMCs were resuspended and dispensed into a 96-well plate, 62.5 μL/well. 3.5 μL of 20× compound working solutions were added and incubated at 37° C. for 30 minutes. 5 μL of PE Mouse Anti-Human CD3 (BD) was added and incubated at 37° C. in the dark for 30 minutes. 4 μL of 20× IL-2 (R&D) was added to each well and incubated at 37° C. in the dark for 20 minutes. All cells in the 96-well plate were transferred to a deep-well plate, 400 μL of a fixation working solution (Biolegend) was added to each well, and incubated at room temperature in the dark for 20 minutes. The cells were washed twice with PBS, and 400 μL of Perm Buffer III (BD) was added and incubated at 4° C. in the dark for 40 minutes. The cells were washed twice with PBS, and 100 μL of a STAT5 pY694 antibody working solution (BD) was added and incubated at room temperature for 40 minutes. After washing once with PBS, the cells were resuspended in 200 μL of a staining buffer and transferred to a sample plate. The antibody fluorescence intensity was analyzed using FlowJo software, and the IC50 of the compound was calculated using XL-Fit software.

[3] = Pharmacokinetic evaluation by intravenous injection or oral gavage in mice; format: in vivo; details: ICR mice; for AUC(0-t) / Cmax / Tmax / half-life / clearance / Vd: mouse, plasma; for Vd: read-out: Vz
Procedure: The inventors evaluated the pharmacokinetic properties of the compound of the present invention in mice.
The compound of the present invention was administered to the test animals in the form of 5% DMA+5% Solutol+90% saline or 5% ethanol+5% TPGS+90% PEG300 solvent. The animals were fasted for 12 hours before administration and had free access to water. For the intravenous administration group, the dose was 1 mg/kg. The drug was administered by intragastric administration at a dose of 10 mg/kg. After the drug administration, blood was intravenously drawn from the animals at the following time points (blood volume was approximately 0.3 mL): 0.083, 0.25, 0.5, 1.0, 2.0, 4.0, 8.0 and 24 h. EDTA-K2 was pre-added to blood collection tubes as an anticoagulant, and the blood samples were centrifuged at 6800 g for 6 min to collect plasma, which was then stored at −80° C.
Sample preparation for LC-MS/MS assay: 15 μL of plasma samples was used for protein precipitation with 300 μL of methanol containing 100 ng/mL IS (IS was tolbutamide). The mixture was vortexed for 1 min and then centrifuged at 18000 g for 10 min. 300 μL of the supernatant was transferred to a 96-well plate. 2 μL of the supernatant was subjected to LC-MS/MS analysis.

[4] = intragastric administration, 10 mg/kg
[5] = po, intragastric administration, 10 mg/kg
[6] = intravenous administration, 1 mg/kg

T1 sequence (P29597 589-875 limits assumed): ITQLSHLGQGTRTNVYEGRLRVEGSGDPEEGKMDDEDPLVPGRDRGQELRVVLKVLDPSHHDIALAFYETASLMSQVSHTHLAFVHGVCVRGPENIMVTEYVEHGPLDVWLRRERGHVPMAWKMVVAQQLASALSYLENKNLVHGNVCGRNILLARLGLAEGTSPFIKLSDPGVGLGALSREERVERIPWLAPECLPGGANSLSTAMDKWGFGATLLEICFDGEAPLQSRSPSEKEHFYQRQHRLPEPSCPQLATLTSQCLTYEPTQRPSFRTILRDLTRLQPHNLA

Molecule: CONC(=O)c1nnc(NC(=O)C2CC2)cc1Nc1cccc(-c2ncn(C)n2)c1OC [Compound 1, 6-(Cyclopropylcarboxamido)-N-methoxy-4-((2-methoxy-3-(1-methyl-1H-1,2,4-triazol-3-yl)phenyl)amino)pyridazine-3-carboxamide]
- pIC50 [1]: 9.77

Molecule: CONC(=O)c1nnc(Nc2cccc(C#N)n2)cc1Nc1cccc(-c2ncn(C)n2)c1OC [Compound 2, 6-((6-cyanopyridin-2-yl)amino)-N-methoxy-4-((2-methoxy-3-(1-methyl-1H-1,2,4-triazol-3-yl)phenyl)amino)pyridazine-3-carboxamide]
- pIC50 [1]: 9.80

Molecule: CCONC(=O)c1nnc(NC(=O)C2CC2)cc1Nc1cccc(-c2ncn(C)n2)c1OC [Compound 3, 6-(Cyclopropylcarboxamido)-N-ethoxy-4-((2-methoxy-3-(1-methyl-1H-1,2,4-triazol-3-yl)phenyl)amino)pyridazine-3-carboxamide]
- pIC50 [1]: 9.89

Molecule: CCONC(=O)c1nnc(NC(=O)C2CC2)cc1Nc1cc(F)cc(-c2ncn(C)n2)c1OC [Compound 4, 6-(Cyclopropylcarboxamido)-N-ethoxy-4-((5-fluoro-2-methoxy-3-(1-methyl-1H-1,2,4-triazol-3-yl)phenyl)amino)pyridazine-3-carboxamide]
- pIC50 [1]: 9.70

Molecule: [2H]C([2H])([2H])n1cnc(-c2cccc(Nc3cc(NC(=O)C4CC4)nnc3C(=O)NOCC)c2OC)n1 [Compound 5, 6-(Cyclopropylcarboxamido)-N-ethoxy-4-((2-methoxy-3-(1-(methyl-d3)-1H-1,2,4-triazol-3-yl)phenyl)amino)pyridazine-3-carboxamide]
- pIC50 [1]: 9.59

Molecule: [2H]C([2H])([2H])n1cnc(-c2cc(F)cc(Nc3cc(NC(=O)C4CC4)nnc3C(=O)NOCC)c2OC)n1 [Compound 6, 6-(Cyclopropylcarboxamido)-N-ethoxy-4-((5-fluoro-2-methoxy-3-(1-(methyl-d3)-1H-1,2,4-triazol-3-yl)phenyl)amino)pyridazine-3-carboxamide]
- pIC50 [1]: 9.52

Molecule: CCONC(=O)c1nnc(NC(=O)C2CC2)cc1Nc1cccc(-c2ncn(C3CC3)n2)c1OC [Compound 7, 6-(Cyclopropylcarboxamido)-4-((3-(1-cyclopropyl-1H-1,2,4-triazol-3-yl)-2-methoxyphenyl)amino)-N-ethoxypyridazine-3-carboxamide]
- pIC50 [1]: 9.77
- pIC50 [2]: < 4.52
- F [3, 4]: 29.09%
- AUC(0-t) [3, 5]: 7850 ng·h/mL
- Cmax [3, 5]: 3460 ng/mL
- Tmax [3, 5]: 49.8 min
- half-life [3, 5]: 225 min
- AUC(0-t) [3, 6]: 2700 ng·h/mL
- Cmax [3, 6]: 3620 ng/mL
- Tmax [3, 6]: 4.8 min
- clearance [3, 6]: 6.13 mL/min/kg
- half-life [3, 6]: 90.6 min
- Vd [3, 6]: 0.81 L/kg

Molecule: CCONC(=O)c1nnc(NC(=O)C2CC2)cc1Nc1cc(F)cc(-c2ncn(C3CC3)n2)c1OC [Compound 8, 6-(Cyclopropylcarboxamido)-4-((3-(1-cyclopropyl-1H-1,2,4-triazol-3-yl)-5-fluoro-2-methoxyphenyl)amino)-N-ethoxypyridazine-3-carboxamide]
- pIC50 [1]: 9.48

Molecule: [2H]C([2H])([2H])Oc1c(Nc2cc(NC(=O)C3CC3)nnc2C(=O)NOCC)cccc1-c1ncn(C2CC2)n1 [Compound 9, 6-(Cyclopropylcarboxamido)-4-((3-(1-cyclopropyl-1H-1,2,4-triazol-3-yl)-2-(methoxy-d3)phenyl)amino)-N-ethoxypyridazine-3-carboxamide]
- pIC50 [1]: 9.66
- pIC50 [2]: < 4.52
- F [3, 4]: 72.48%
- AUC(0-t) [3, 5]: 20100 ng·h/mL
- Cmax [3, 5]: 9220 ng/mL
- Tmax [3, 5]: 40.2 min
- half-life [3, 5]: 278 min
- AUC(0-t) [3, 6]: 2780 ng·h/mL
- Cmax [3, 6]: 3730 ng/mL
- Tmax [3, 6]: 4.8 min
- clearance [3, 6]: 6.09 mL/min/kg
- half-life [3, 6]: 258 min
- Vd [3, 6]: 1.8 L/kg

Molecule: [2H]C([2H])([2H])ONC(=O)c1nnc(NC(=O)C2CC2)cc1Nc1cccc(-c2ncn(C)n2)c1OC [Compound 14, 6-(Cyclopropylcarboxamido)-N-(methoxy-d3)-4-((2-methoxy-3-(1-methyl-1H-1,2,4-triazol-3-yl)phenyl)amino)pyridazine-3-carboxamide]
- pIC50 [1]: 9.57

Molecule: [2H]C([2H])([2H])C([2H])([2H])ONC(=O)c1nnc(NC(=O)C2CC2)cc1Nc1cccc(-c2ncn(C)n2)c1OC [Compound 15, 6-(Cyclopropylcarboxamido)-N-(ethoxy-d5)-4-((2-methoxy-3-(1-methyl-1H-1,2,4-triazol-3-yl)phenyl)amino)pyridazine-3-carboxamide]
- pIC50 [1]: 9.85

Molecule: [2H]C([2H])([2H])ONC(=O)c1nnc(NC(=O)C2CC2)cc1Nc1cccc(-c2ncn(C3CC3)n2)c1OC [Compound 16, 6-(Cyclopropanamido)-4-((3-(1-cyclopropyl-1H-1,2,4-triazol-3-yl)-2-methoxyphenyl)amino)-N-(methoxy-d3)pyridazine-3-carboxamide]
- pIC50 [1]: 9.54

Molecule: [2H]C([2H])([2H])C([2H])([2H])ONC(=O)c1nnc(NC(=O)C2CC2)cc1Nc1cccc(-c2ncn(C3CC3)n2)c1OC [Compound 17, 6-(Cyclopropylcarboxamido)-4-((3-(1-cyclopropyl-1H-1,2,4-triazol-3-yl)-2-methoxyphenyl)amino)-N-(ethoxy-d5)pyridazine-3-carboxamide]
- pIC50 [1]: 9.72
- pIC50 [2]: < 4.52
- F [3, 4]: 94.13%
- AUC(0-t) [3, 5]: 17500 ng·h/mL
- Cmax [3, 5]: 5640 ng/mL
- Tmax [3, 5]: 40.2 min
- half-life [3, 5]: 302 min
- AUC(0-t) [3, 6]: 1860 ng·h/mL
- Cmax [3, 6]: 3400 ng/mL
- Tmax [3, 6]: 4.8 min
- clearance [3, 6]: 9.13 mL/min/kg
- half-life [3, 6]: 217 min
- Vd [3, 6]: 2.77 L/kg

Molecule: BMS-986165 [reference compound]
- pIC50 [2]: 6.39
